From patent US20210113501A1, “METHOD OF ADMINISTERING BETA-HYDROXY-BETA-METHYLBUTYRATE (HMB)” (Metabolic Technologies, Inc., priority 2009, published 2021)

Assay: Study 2 blood chemistry
Type: in vivo, human
Settings: for Aspartate Aminotransferase / Gamma-glutamyl: in U/L (unit assumed)
Method: Study 2 design. Study 2 was conducted similar to study 1 with the following modifications. In study 2, plasma levels of HMB were measured for 1440 min (24 h) and total urine collection was also performed for measurement of urinary HMB excretion during this period. After the 180 min blood sample, the subjects were allowed to leave the laboratory and were instructed to return to the laboratory for additional blood samples at 360, 720, and 1440 min after the ingestion of the supplement. As in study 1, each subject took each of the treatments with at least a one week washout period between treatments. Samples were again stored frozen at −70° C. for analysis of plasma and urinary HMB concentrations. Pre-ingestion, 180 min and 1440 min blood samples were again assayed for the same measurements already for study 1. Subjects were provided with a standardized lunch after the 180 min blood sampling and instructed to eat this at approximately 240 min post ingestion. Following the 720 min blood sample, subjects were instructed to eat a normal evening meal before 10 pm. Subjects reported back to the laboratory the following morning for the fasted 1440 min blood sample. A urine collection container was provided and subjects collected all urine produced during the experimental 24 h experimental period. The urine was stored refrigerated when not being collected. Urine volumes were measured and samples of the total urine collection were taken and stored frozen at −70° C. until analyzed for HMB.
The data were analyzed using a crossover design with Proc GLM in SAS. (45) For the timed sampling of plasma HMB a repeated measures polynomial model was used. The model included subject, order, and treatment main effects and time by treatment interaction where appropriate. For other parameters Proc GLM was also used with subject, order, and treatment main effects and the p values are reported for the treatment main effect. Statistical significance was determined for p<0.05 and a trend was determined for 0.05<p<0.10.

CC(C)(O)CC(=O)O [HMB-Acid Gel Swallow, 3-hydroxy-3-methylbutyric acid]
A:G Ratio (After (24 h)): 1.8 ± 0.1
Alanine Aminotransferase (After (24 h)): 16.4 ± 1.7 IU/L
Albumin (After (24 h)): 4.3 ± 0.1 g/dL
Alkaline Phosphatase (After (24 h)): 74.1 ± 7.6 IU/L
Blood Urea Nitrogen (After (24 h)): 13.9 ± 1.4 mg/dL
CO2 (After (24 h)): 27.8 ± 0.9 mEq/L
Chloride (After (24 h)): 102.8 ± 0.7 mEq/L
Cholesterol Ratio (After (24 h)): 3.2 ± 0.2
Creatinine (After (24 h)): 1.0 ± 0.1 mg/dL
Direct Bilirubin (After (24 h)): 0.1 ± 0.04 mg/dL
Globulin (After (24 h)): 2.4 ± 0.2 g/dL
Glucose (After (24 h)): 79.9 ± 1.9 mg/dL
HDL (After (24 h)): 56.4 ± 2.9 mg/dL
Iron (After (24 h)): 53.8 ± 10.8 µg/dL
Iron Binding Capacity (After (24 h)): 395.1 ± 34.7 µg/dL
Iron Saturation (After (24 h)): 16.9 ± 4.6%
LDL (After (24 h)): 96.1 ± 8.1 mg/dL
Lactate Dehydrogenase (After (24 h)): 136.6 ± 11.6 IU/L
Phosphorus (After (24 h)): 4.5 ± 0.2 mg/dL
Potassium (After (24 h)): 4.7 ± 0.2 mEq/L
Protein (After (24 h)): 6.7 ± 0.2 g/dL
Sodium (After (24 h)): 141.5 ± 0.9 mEq/L
Total Bilirubin (After (24 h)): 0.5 ± 0.1 mg/dL
Total Cholesterol (After (24 h)): 176.9 ± 11.8 mg/dL
Triglycerides (After (24 h)): 121.4 ± 22.7 mg/dL
UIBC (After (24 h)): 335.1 ± 42.1 µg/dL
Uric Acid (After (24 h)): 4.8 ± 0.3 mg/dL
Aspartate Aminotransferase (After (24 h)): 21.3 ± 0.7
Gamma-glutamyl (After (24 h)): 14.0 ± 1.0
A:G Ratio (Before): 1.9 ± 0.2
Alanine Aminotransferase (Before): 16.4 ± 1.6 IU/L
Albumin (Before): 4.1 ± 0.1 g/dL
Alkaline Phosphatase (Before): 64.8 ± 7.3 IU/L
Blood Urea Nitrogen (Before): 14.5 ± 1.4 mg/dL
CO2 (Before): 24.8 ± 1.0 mEq/L
Chloride (Before): 103.1 ± 0.8 mEq/L
Cholesterol Ratio (Before): 3.2 ± 0.2
Creatinine (Before): 1.0 ± 0.1 mg/dL
Direct Bilirubin (Before): 0.1 ± 0.03 mg/dL
Globulin (Before): 2.3 ± 0.2 g/dL
Glucose (Before): 74.1 ± 2.0 mg/dL
HDL (Before): 51.4 ± 2.8 mg/dL
Iron (Before): 68.0 ± 13.4 µg/dL
Iron Binding Capacity (Before): 378.6 ± 32.1 µg/dL
Iron Saturation (Before): 20.3 ± 5.0%
LDL (Before): 90.8 ± 7.0 mg/dL
Lactate Dehydrogenase (Before): 155.9 ± 13.9 IU/L
Phosphorus (Before): 4.2 ± 0.2 mg/dL
Potassium (Before): 4.1 ± 0.1 mEq/L
Protein (Before): 6.4 ± 0.1 g/dL
Sodium (Before): 139.9 ± 0.7 mEq/L
Total Bilirubin (Before): 0.5 ± 0.1 mg/dL
Total Cholesterol (Before): 164.6 ± 10.5 mg/dL
Triglycerides (Before): 112.6 ± 18.4 mg/dL
UIBC (Before): 310.6 ± 42.4 µg/dL
Uric Acid (Before): 4.7 ± 0.1 mg/dL
A:G Ratio % Change (Before to After): −2.6%
Alanine Aminotransferase % Change (Before to After): 0.0%
Albumin % Change (Before to After): 4.5%
Alkaline Phosphatase % Change (Before to After): 14.5%
Aspartate Aminotransferase % Change (Before to After): −8.6%
Blood Urea Nitrogen % Change (Before to After): −4.3%
CO2 % Change (Before to After): 12.1%
Chloride % Change (Before to After): −0.4%
Cholesterol Ratio % Change (Before to After): −2.3%
Creatinine % Change (Before to After): −0.6%
Direct Bilirubin % Change (Before to After): 6.0%
Gamma-glutamyl % Change (Before to After): 5.7%
Globulin % Change (Before to After): 6.0%
Glucose % Change (Before to After): 7.8%
HDL % Change (Before to After): 9.7%
Iron % Change (Before to After): −21.0%
Iron Binding Capacity % Change (Before to After): 4.4%
Iron Saturation % Change (Before to After): −16.7%
LDL % Change (Before to After): 5.9%
Lactate Dehydrogenase % Change (Before to After): −12.3%
Phosphorus % Change (Before to After): 6.2%
Potassium % Change (Before to After): 14.0%
Protein % Change (Before to After): 5.1%
Sodium % Change (Before to After): 1.2%
Total Bilirubin % Change (Before to After): 2.6%
Total Cholesterol % Change (Before to After): 7.4%
Triglycerides % Change (Before to After): 7.8%
UIBC % Change (Before to After): 7.9%
Uric Acid % Change (Before to After): 1.9%
Aspartate Aminotransferase (Before): 23.3 ± 0.9
Gamma-glutamyl (Before): 13.3 ± 1.2
